Usually IC50 stands for the concentration that inhibits the measured activity by half.

“Also recorded” adds a separate entry of the source. Where two headings read alike, the source gives them in different places.

For series [1] the following is noted: cited from earlier work; for oral bioavailability: background statement.
Series [2] in a line: In vitro plasma metabolite identification studies. Format: in vitro ADME. Conditions: 10 μM, 37° C., 60 min incubation. The protocol: Plasma stability studies were conducted in mouse plasma as previously described. (Majer, et al., 2016) Compound 1 and prodrugs (12, 23 and 30) (10 μM) were spiked in plasma and incubated in an orbital shaker at 37° C. At zero and 60 min post incubation, 100 μL aliquots of the mixture in triplicate were removed and the reaction quenched by addition of two times the volume of ice cold acetonitrile spiked with the internal standard (losartan 5 μM). The samples were vortexed for 30 s and centrifuged at 12000 g for 10 min. Supernatant (50 μL) was diluted with 50 μL water and transferred to a 250 μL polypropylene vial sealed with a Teflon cap. Prodrug disappearance and metabolite identification were analyzed over time using an Agilent 1260 HPLC coupled to a ESITOF Agilent 6530 with Agilent Jet Stream Technology (Agilent Technologies, Santa Clara, CA). Samples were separated on a Waters 1.7 μm, C18, 100×2.1 column at a flow rate 0.3 mL/min. […] The mass spectrometry instrument was operated in a negative or positive (for JV-2946) ion mode with a voltage of +3.00 kV applied to the capillary. The temperature, the flow rate of the nitrogen drying gas, the pressure of the nitrogen nebulizing gas, the temperature, and the flow rate of the sheath gas were set at 325° C., 10 L/min, 40 psi, 390° C., and 11/min, respectively.

Series [3] concerns rat chronic constriction injury (CCI) model of neuropathic pain. The following applies: cited from earlier work.
Another series deals with rhGCPII (Homo sapiens, UniProt Q04609). The experiment in a line: GCPII inhibition, radioenzymatic assay with 3H-NAAG. The format is biochemical. Conditions: for IC50: rhGCPII, 3H-NAAG, pH 8.0, read-out: IC50, inhibition potency against GCPII. The protocol:
Inhibition constants of prodrugs were determined using the radioenzymatic assay with 3HNAAG (radiolabeled at the terminal glutamate) as has been previously described (Novakova, et al., J. Med. Chem, 2016). Briefly, rhGCPII (30 ng/mL) was preincubated in the presence of inhibitors at varying concentrations, in 20 mM Tris, 150 mM NaCl, pH 8.0, for 15 min at 37° C. in the total volume of 80 μL. The reaction was initiated by the addition of 40 μL of the mixture of 0.31 μM NAAG (Sigma) and 15 nM 3H-NAAG (50 Ci/mmol in Tris buffer, PerkinElmer) to the total reaction volume of 120 μL. Following 20 min incubation, the reaction was terminated by addition of 120 μL of potassium phosphate (200 Mm), EDTA (50 Mm) and β-mercaptoethanol (2Mm), pH 7.4. The released glutamate was separated by ion-exchange chromatography and quantified by liquid scintillation counting. GraphPad Prism software (GraphPad Software, San Diego, CA, USA), was used for data fitting and IC50 values were calculated from the inhibition curves where applicable.

Series [4] in a line: Subcutaneous plasma and sciatic nerve pharmacokinetic studies in mice. Format: in vivo. The following applies: 10 mg/kg equivalent s.q., 10-120 min post dose. The protocol: Bioanalysis of parent and intact prodrug in plasma and tissues: Prior to extraction, frozen samples were thawed on ice. For plasma, 50 μL of the sample was transferred into siliconized microcentrifuge tubes. For sciatic nerves, the samples were weighed in a 1.7 mL tubes and homogenized in 5× the volume of methanol. The calibration curves were prepared using naïve plasma and sciatic nerves in a concentration range of 50-10000 pmol/g or pmol/mL. Sample preparation involved a single liquid extraction by addition of 300 μL of methanol with internal standard (losartan 200 nM in methanol), followed by vortexing for 30 s and then centrifugation at 10,000×g for 10 min. Supernatant (about 250 μL) was transferred and evaporated to dryness at 40° C. under a gentle stream of nitrogen. The residue was reconstituted with 50 μL of 30% acetonitrile and analysed by LC/MS/MS.
Chromatographic analysis was performed using an Accela™ ultra high-performance system consisting of an analytical pump, and an autosampler coupled with TSQ Vantage mass spectrometer (Thermo Fisher Scientific Inc., Waltham, MA). […] The mobile phase used was composed of 0.1% formic acid in acetonitrile and 0.1% formic acid in H2O with gradient elution, starting with 10% (organic) linearly increasing to 99% up to 2.5 min, maintaining at 99% (2.5-3.5 min) and reequlibrating to 10% by 4.5 min. The total run time for each analyte was 4.5 min. The mass transitions (M−H)− used for Compound 50 were 280.077>175.168, 203.156; and for losartan were 420.895>127.040, 179.108.

Series [5] is described as follows: In vitro metabolic stability in mouse plasma. Format: in vitro ADME. Conditions: 37° C. As for the experimental part:
(§1) For metabolic stability, plasma (mouse, and human) and liver microsomes (mouse and human) were used. For stability, prodrugs (10 μM) were spiked in each matrix and incubated in an orbital shaker at 37° C. At predetermined times (0, 30 and 60 min), 100 μL aliquots of the mixture in triplicate were removed and the reaction quenched by addition of three times the volume of ice cold acetonitrile spiked with the internal standard (losartan 5 μM). The samples were vortexed for 30 s and centrifuged 12000 g for 10 min. 50 μL supernatant diluted with 50 μL water was transferred to a 250 μL polypropylene vial sealed with a Teflon cap. Prodrug disappearance was monitored over time using a liquid chromatography and tandem mass spectrometry (LC/MS/MS) method as described below.
(§2) For LC/MS/MS, prodrugs were separated with Thermo Scientific Accela UPLC system coupled to Accela open autosampler on an Agilent C18 (100×2.1 mm id) UPLC column. The autosampler was temperature controlled and operating at 10° C. […] The column effluent was monitored using TSQ Vantage triple-quadrupole mass spectrometric detector, equipped with an electrospray probe set in the positive ionization mode. […]
(§3) For quantification of compound remaining, disappearance of prodrugs was measured from ratio of peak areas of analyte to IS. Percentage remaining was calculated in the following manner: […]

Series [6] is described as follows: In vitro metabolic stability in human plasma. Format: in vitro ADME. The following applies: 37° C. As for the experimental part:
as §1, §2, §3

Series [7] has as its system rat chronic constriction injury (CCI) model of neuropathic pain. The experiment in a line: Chronic constrictive injury (CCI) model of neuropathic pain, thermal hyperalgesia. Format: in vivo. The text has this:
All experimental protocols were approved by the Institutional Animal Care and Use Committee at Johns Hopkins University (Baltimore, MD) and adhered to all of the applicable institutional and governmental guidelines for the humane treatment of laboratory animals. Male Sprague-Dawley rats (200-250 g; n=10-15 per group) were subjected to peripheral neuropathy injury by constriction of the sciatic nerve performed according to methods described previously. (Novakova, et al., 2016; Bennett, et al., 1988; Attal, et al., 1990) In brief, the common sciatic nerve was exposed and 4 ligatures (4.0 chromic gut) tied loosely around it with 1 mm spacing. Wound clips were used to close wounds and animals were returned to home cages for recovery. Hyperalgesia testing was initiated 10 days post-surgery. Pain sensitivity was assessed by determining withdrawal latencies in response to a constant thermal stimulus directed to the plantar surface of the hind paw using a Basile Plantar apparatus (Ugo Basile, Vaarese, Italy) according to the method described by Hargreaves et al. (Hargreaves, et al., 1988) Apparatus was calibrated so that normal rats respond to the stimulus within 15 sec of application. Withdrawal latency (i.e., the time taken for the rat to withdraw its paw from the heat source) was measured to the nearest 0.1 sec. The “difference in score” was calculated by subtracting the average latency of the paw on the non-ligated versus ligated side. Each animal was tested during two experimental sessions per week, with three days allowed to elapse between test sessions. Test agents, prodrug 12 (3 mg/kg equivalent of 1), or gabapentin (50 mg/kg and 100 mg/kg po) as a positive control were dosed daily throughout the study via oral gavage and one hour before testing on experimental days. Statistical analysis with students t-test was used to determine differences between control and treatment group.

Series [8] can be described thus: Stability testing under GCPII enzyme assay conditions. The following applies: 30 m in aqueous buffer; pH 8.0. Format: physicochemical. The protocol:
Compound 1 and its six prodrugs 7, 12, 17, 23, 25, and 30 were tested for their inhibition potency against GCPII. […] Considering structural data on the compound 1/GCPII complex reported previously (Novakova, et al., J. Med. Chem, 2016) the lack of inhibitory potency of the prodrugs is likely due to the inability of the modified hydroxamate function to chelate active-site zinc ions.

Sequence of rhGCPII (Q04609 whole entry): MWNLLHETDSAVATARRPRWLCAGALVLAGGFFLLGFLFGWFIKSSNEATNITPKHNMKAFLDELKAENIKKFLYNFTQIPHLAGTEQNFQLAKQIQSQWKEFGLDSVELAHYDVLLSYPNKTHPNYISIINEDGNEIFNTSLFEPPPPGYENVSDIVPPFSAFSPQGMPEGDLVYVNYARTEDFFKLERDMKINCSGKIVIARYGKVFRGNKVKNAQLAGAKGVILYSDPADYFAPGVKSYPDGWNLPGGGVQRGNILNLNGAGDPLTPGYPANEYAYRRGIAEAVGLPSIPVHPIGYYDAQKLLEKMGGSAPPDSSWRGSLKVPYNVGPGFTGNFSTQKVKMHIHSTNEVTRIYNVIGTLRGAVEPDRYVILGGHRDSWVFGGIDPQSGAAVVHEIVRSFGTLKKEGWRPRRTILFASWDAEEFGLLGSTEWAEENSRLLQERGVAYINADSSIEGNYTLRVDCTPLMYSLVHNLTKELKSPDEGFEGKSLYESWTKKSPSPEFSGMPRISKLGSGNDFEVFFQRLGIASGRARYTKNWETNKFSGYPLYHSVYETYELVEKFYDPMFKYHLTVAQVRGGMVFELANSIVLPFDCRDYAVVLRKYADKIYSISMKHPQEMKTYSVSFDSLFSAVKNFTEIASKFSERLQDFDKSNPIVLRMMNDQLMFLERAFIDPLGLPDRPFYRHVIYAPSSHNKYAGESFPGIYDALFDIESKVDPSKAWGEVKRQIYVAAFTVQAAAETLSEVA

On to `O=C(CCC(Cc1ccc(C(=O)O)cc1)C(=O)O)NO` (stereo not drawn) [Compound 1, 4-Carboxy-α-[3-(hydroxyamino)-3-oxopropyl]-benzenepropanoic acid], for which, in series [1] (Novakova, et al., 2016), the “distribution to sciatic nerves” value is “good distribution to sciatic nerves”. Further, the oral bioavailability entry in series [1] is “poor oral bioavailability”. Further, the “stability / prodrug disappearance in mouse plasma” value (“stability / prodrug disappearance” below) in [2] is listed as “completely stable”. Moreover, the “analgesic effects in the CCI model” value in series [3] (10 mg/kg/day oral dosing, previously shown) is given as “analgesic effects”. The “first day with significantly reduced thermal hyperalgesia” value in series [3] (oral 10 mg/kg/day (Novakova, et al., 2016)) is 8 days. The IC50 on rhGCPII worked out at 44 nM.

Regarding `CC(=O)Oc1ccc(CONC(=O)CCC(Cc2ccc(C(=O)OCOC(=O)OC(C)C)cc2)C(=O)O)cc1` (stereo not drawn) [Compound 30, 5-(((4-Acetoxybenzyl)oxy)amino)-2-(4-((((isopropoxycarbonyl)oxy)methoxy)carbonyl)benzyl)-5-oxopentanoic acid], the “stability / prodrug disappearance” value in series [2] is “completely hydrolyzed”. Also, in series [4], the “plasma (systemic) levels of active compound 50 after subcutaneous dosing” value is listed as “high systemic levels” and the “sciatic nerve exposure of active compound 50 after subcutaneous dosing” value is given as “excellent nerve exposure”.

On to `CC(=O)Oc1ccc(CONC(=O)CCC(Cc2ccc(C(=O)O)cc2)C(=O)O)cc1` (stereo not drawn) [Compound 12, 4-(5-(((4-Acetoxybenzyl)oxy)amino)-2-carboxy-5-oxopentyl)benzoic acid], for which the “stability / prodrug disappearance” value in series [2] is on record as “lost the peak corresponding to 12”. In addition, the “metabolic stability in mouse plasma” value in series [5] was “rapidly metabolized”. In addition, in series [4], the “plasma (systemic) levels of active compound 50 after subcutaneous dosing” value is recorded as “high systemic levels” and the “sciatic nerve exposure of active compound 50 after subcutaneous dosing” value is listed as “excellent nerve exposure”. Also, the “metabolic stability in human plasma” value in series [6] is “rapidly metabolized”. For the same molecule, in [7] (oral 4.6 mg/kg/day (equivalent of 3 mg/kg/day of 1)), the “response latency to thermal stimulus, sham-operated side” value is reported as “no significant effect on absolute latency; also recorded: did not affect the response latency”. In series [7] (oral daily, 3 mg/kg dose equivalent of 1 (50), 4.6 mg/kg/day for 12), the “antinociceptive effect on thermal hyperalgesia, ligated side” value is on record as “analgesic efficacy comparable to dose of 10 mg/kg of 1; also recorded: significantly reduced thermal hyperalgesia; also recorded: analgesic efficacy superior to that of oral daily doses of 10 mg/kg of 1; also recorded: efficacious; also recorded: significantly attenuated CCI-induced hyperalgesic state”. Moreover, the “first day with significantly reduced thermal hyperalgesia” value in series [7] (oral, 3 mg/kg/day equivalent of 1) was 4 days.

As for `CCOC(=O)c1ccc(CC(CCC(=O)NOCc2ccc(OC(C)=O)cc2)C(=O)O)cc1` (stereo not drawn) [Compound 23, 5-(((4-Acetoxybenzyl)oxy)amino)-2-(4-(ethoxycarbonyl)benzyl)-5-oxopentanoic acid], in series [2], the “stability / prodrug disappearance” value was “complete loss of 23”.

Turning to `O=C(O)CCC(CP(=O)(O)O)C(=O)O` (stereo not drawn) [Compound 2-PMPA, 2-phosphonomethyl pentanedioic acid], the oral bioavailability entry in series [1] is listed as “negligible oral availability”.

Consider `NCC1(CC(=O)O)CCCCC1` [gabapentin, reference compound], for which the “antinociceptive effect on thermal hyperalgesia, ligated side” value in [7] (oral 50 mg/kg/day) is listed as “did not significantly attenuate the hyperalgesic state”; in series [7] (oral 100 mg/kg/day, 100 mg/kg/day) it was “significantly reversed allodynia; also recorded: significantly attenuated CCI-induced hyperalgesic state”.

For the molecule `Cc1oc(=O)oc1CONC(=O)CCC(Cc1ccc(C(=O)O)cc1)C(=O)O` (stereo not drawn) [Compound 17, 4-(2-Carboxy-5-(((5-methyl-2-oxo-1,3-dioxol-4-yl)methoxy)amino)-5-oxopentyl)benzoic acid], the “stability under GCPII enzyme assay conditions” value in series [8] is “partial hydrolysis to 1”. Further, on rhGCPII (compared to compound 1), the “fold less potent versus 1 in inhibiting GCPII activity” value is listed as 12 fold. In addition, the IC50 on rhGCPII came to 540 nM.
